Assay results reported in ChEMBL document CHEMBL4507319 (2021).

Columns and labels:
[1] = biological target: Cyclin-dependent kinase 3 (Homo sapiens) (UniProt Q00526); settings: Compound concentration 1000.0 nM
[2] = biological target: Cyclin-dependent kinase 9 (Homo sapiens) (UniProt P50750); settings: Compound concentration 1000.0 nM
[3] = biological target: Casein kinase I isoform alpha-like (Homo sapiens) (UniProt Q8N752); settings: Compound concentration 1000.0 nM
[4] = biological target: Casein kinase I isoform gamma-2 (Homo sapiens) (UniProt P78368); settings: Compound concentration 1000.0 nM
[5] = system: Epidermal growth factor receptor (Homo sapiens), P00533 [G719C]; settings: Compound concentration 1000.0 nM
[6] = system: Epidermal growth factor receptor (Homo sapiens), P00533 [UNDEFINED MUTATION]; settings: Compound concentration 1000.0 nM
[7] = system: Epidermal growth factor receptor (Homo sapiens), P00533 [T790M]; settings: Compound concentration 1000.0 nM
[8] = biological target: Ephrin type-A receptor 6 (Homo sapiens) (UniProt Q9UF33); settings: Compound concentration 1000.0 nM
[9] = biological target: Mitogen-activated protein kinase 1 (Homo sapiens) (UniProt P28482); settings: Compound concentration 1000.0 nM
[10] = biological target: Mitogen-activated protein kinase 6 (Homo sapiens) (UniProt Q16659); settings: Compound concentration 1000.0 nM
[11] = system: Fibroblast growth factor receptor 3 (Homo sapiens), P22607 [G697C]; settings: Compound concentration 1000.0 nM
[12] = biological target: G protein-coupled receptor kinase 4 (Homo sapiens) (UniProt P32298); settings: Compound concentration 1000.0 nM
[13] = biological target: Tyrosine-protein kinase Lyn (Homo sapiens) (UniProt P07948); settings: Compound concentration 1000.0 nM
[14] = biological target: Mitogen-activated protein kinase kinase kinase kinase 2 (Homo sapiens) (UniProt Q12851); settings: Compound concentration 1000.0 nM
[15] = biological target: T1, MAP/microtubule affinity-regulating kinase 4 (Homo sapiens) (UniProt Q96L34); settings: Compound concentration 1000.0 nM
T1 sequence (whole entry): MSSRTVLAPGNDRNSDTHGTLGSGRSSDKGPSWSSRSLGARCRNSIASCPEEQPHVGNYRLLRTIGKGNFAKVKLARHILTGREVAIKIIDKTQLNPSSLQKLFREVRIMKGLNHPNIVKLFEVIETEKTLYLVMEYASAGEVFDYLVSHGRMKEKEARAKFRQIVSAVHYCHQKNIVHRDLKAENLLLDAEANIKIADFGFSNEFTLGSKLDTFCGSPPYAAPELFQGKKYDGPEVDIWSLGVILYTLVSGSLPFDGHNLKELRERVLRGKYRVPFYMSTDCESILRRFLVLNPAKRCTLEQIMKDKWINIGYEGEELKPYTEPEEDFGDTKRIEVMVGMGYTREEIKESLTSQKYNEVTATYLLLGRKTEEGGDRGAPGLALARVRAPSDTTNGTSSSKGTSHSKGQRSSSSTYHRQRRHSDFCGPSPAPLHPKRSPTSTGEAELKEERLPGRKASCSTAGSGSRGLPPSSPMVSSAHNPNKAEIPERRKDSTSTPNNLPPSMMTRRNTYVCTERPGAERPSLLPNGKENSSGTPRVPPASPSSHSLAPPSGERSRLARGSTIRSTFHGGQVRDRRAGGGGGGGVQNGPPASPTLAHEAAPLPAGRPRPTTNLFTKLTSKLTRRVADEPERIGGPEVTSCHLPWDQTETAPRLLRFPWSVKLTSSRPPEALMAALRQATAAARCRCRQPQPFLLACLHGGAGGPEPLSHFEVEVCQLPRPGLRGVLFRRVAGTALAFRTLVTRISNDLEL

[16] = biological target: Mitogen-activated protein kinase kinase kinase 9 (Homo sapiens) (UniProt P80192); settings: Compound concentration 1000.0 nM
[17] = biological target: T2, Serine/threonine-protein kinase Nek3 (Homo sapiens) (UniProt P51956); settings: Compound concentration 1000.0 nM
T2 sequence (whole entry): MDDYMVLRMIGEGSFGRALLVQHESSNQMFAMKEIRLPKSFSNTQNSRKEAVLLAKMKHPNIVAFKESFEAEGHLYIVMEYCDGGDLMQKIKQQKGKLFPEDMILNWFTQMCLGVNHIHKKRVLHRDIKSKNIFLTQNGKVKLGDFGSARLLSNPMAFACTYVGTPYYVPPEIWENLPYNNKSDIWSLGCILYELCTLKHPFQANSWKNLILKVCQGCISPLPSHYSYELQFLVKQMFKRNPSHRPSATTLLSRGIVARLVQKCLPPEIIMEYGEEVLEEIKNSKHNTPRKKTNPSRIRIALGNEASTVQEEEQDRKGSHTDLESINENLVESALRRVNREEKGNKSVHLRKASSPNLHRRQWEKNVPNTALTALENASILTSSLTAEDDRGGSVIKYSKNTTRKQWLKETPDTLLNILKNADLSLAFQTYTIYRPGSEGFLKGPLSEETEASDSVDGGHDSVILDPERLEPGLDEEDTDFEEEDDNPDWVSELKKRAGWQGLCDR

[18] = biological target: Serine/threonine-protein kinase PAK 1 (Homo sapiens) (UniProt Q13153); settings: Compound concentration 1000.0 nM
[19] = biological target: Platelet-derived growth factor receptor alpha (Homo sapiens) (UniProt P16234); settings: Compound concentration 1000.0 nM
[20] = biological target: Calcium-dependent protein kinase 1 (Plasmodium falciparum) (UniProt P62344); settings: Compound concentration 1000.0 nM
[21] = biological target: Cyclin-dependent kinase 2 homolog (Plasmodium falciparum (isolate 3D7)) (UniProt P61075); settings: Compound concentration 1000.0 nM
[22] = system: Phosphatidylinositol 4,5-bisphosphate 3-kinase catalytic subunit alpha isoform (Homo sapiens), P42336 [H1047L]; settings: Compound concentration 1000.0 nM
[23] = biological target: Protein kinase C eta type (Homo sapiens) (UniProt P24723); settings: Compound concentration 1000.0 nM
[24] = biological target: Proto-oncogene tyrosine-protein kinase ROS (Homo sapiens) (UniProt P08922); settings: Compound concentration 1000.0 nM
[25] = biological target: Ribosomal protein S6 kinase alpha-3 (Homo sapiens, UniProt P51812); settings: Compound concentration 1000.0 nM
[26] = biological target: Serine/threonine-protein kinase 16 (Homo sapiens) (UniProt O75716); settings: Compound concentration 1000.0 nM
[27] = biological target: Serine/threonine-protein kinase WNK3 (Homo sapiens) (UniProt Q9BYP7); settings: Compound concentration 1000.0 nM
[28] = biological target: 5-hydroxytryptamine receptor 1D (Homo sapiens) (UniProt P28221); settings: Compound concentration 10.0 uM
Chain of 5-hydroxytryptamine receptor 1D (Homo sapiens) (P28221 whole entry): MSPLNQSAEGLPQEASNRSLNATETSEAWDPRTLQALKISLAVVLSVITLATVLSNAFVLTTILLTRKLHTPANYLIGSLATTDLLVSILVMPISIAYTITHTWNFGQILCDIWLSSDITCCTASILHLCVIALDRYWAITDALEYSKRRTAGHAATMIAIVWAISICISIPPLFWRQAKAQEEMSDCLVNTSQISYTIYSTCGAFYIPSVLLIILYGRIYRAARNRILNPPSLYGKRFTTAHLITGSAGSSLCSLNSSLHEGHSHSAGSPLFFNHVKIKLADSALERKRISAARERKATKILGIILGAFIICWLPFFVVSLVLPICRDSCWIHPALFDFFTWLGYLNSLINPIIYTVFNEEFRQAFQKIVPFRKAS

Chain of Calcium-dependent protein kinase 1 (Plasmodium falciparum) (P62344 2-524 limits assumed): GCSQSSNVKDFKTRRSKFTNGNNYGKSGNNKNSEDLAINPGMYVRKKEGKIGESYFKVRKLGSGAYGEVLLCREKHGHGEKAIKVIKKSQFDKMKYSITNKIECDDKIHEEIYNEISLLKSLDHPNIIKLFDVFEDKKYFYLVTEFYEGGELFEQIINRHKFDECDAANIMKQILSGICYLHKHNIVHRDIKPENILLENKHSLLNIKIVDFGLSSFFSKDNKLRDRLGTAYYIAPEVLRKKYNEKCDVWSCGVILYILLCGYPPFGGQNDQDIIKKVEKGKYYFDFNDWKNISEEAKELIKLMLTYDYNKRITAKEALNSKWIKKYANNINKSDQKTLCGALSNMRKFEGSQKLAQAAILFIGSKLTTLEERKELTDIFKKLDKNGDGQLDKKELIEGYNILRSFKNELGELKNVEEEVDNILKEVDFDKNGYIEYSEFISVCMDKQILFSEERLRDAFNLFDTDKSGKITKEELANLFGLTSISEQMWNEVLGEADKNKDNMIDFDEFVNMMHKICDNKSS
Chain of Proto-oncogene tyrosine-protein kinase ROS (Homo sapiens) (P08922 whole entry): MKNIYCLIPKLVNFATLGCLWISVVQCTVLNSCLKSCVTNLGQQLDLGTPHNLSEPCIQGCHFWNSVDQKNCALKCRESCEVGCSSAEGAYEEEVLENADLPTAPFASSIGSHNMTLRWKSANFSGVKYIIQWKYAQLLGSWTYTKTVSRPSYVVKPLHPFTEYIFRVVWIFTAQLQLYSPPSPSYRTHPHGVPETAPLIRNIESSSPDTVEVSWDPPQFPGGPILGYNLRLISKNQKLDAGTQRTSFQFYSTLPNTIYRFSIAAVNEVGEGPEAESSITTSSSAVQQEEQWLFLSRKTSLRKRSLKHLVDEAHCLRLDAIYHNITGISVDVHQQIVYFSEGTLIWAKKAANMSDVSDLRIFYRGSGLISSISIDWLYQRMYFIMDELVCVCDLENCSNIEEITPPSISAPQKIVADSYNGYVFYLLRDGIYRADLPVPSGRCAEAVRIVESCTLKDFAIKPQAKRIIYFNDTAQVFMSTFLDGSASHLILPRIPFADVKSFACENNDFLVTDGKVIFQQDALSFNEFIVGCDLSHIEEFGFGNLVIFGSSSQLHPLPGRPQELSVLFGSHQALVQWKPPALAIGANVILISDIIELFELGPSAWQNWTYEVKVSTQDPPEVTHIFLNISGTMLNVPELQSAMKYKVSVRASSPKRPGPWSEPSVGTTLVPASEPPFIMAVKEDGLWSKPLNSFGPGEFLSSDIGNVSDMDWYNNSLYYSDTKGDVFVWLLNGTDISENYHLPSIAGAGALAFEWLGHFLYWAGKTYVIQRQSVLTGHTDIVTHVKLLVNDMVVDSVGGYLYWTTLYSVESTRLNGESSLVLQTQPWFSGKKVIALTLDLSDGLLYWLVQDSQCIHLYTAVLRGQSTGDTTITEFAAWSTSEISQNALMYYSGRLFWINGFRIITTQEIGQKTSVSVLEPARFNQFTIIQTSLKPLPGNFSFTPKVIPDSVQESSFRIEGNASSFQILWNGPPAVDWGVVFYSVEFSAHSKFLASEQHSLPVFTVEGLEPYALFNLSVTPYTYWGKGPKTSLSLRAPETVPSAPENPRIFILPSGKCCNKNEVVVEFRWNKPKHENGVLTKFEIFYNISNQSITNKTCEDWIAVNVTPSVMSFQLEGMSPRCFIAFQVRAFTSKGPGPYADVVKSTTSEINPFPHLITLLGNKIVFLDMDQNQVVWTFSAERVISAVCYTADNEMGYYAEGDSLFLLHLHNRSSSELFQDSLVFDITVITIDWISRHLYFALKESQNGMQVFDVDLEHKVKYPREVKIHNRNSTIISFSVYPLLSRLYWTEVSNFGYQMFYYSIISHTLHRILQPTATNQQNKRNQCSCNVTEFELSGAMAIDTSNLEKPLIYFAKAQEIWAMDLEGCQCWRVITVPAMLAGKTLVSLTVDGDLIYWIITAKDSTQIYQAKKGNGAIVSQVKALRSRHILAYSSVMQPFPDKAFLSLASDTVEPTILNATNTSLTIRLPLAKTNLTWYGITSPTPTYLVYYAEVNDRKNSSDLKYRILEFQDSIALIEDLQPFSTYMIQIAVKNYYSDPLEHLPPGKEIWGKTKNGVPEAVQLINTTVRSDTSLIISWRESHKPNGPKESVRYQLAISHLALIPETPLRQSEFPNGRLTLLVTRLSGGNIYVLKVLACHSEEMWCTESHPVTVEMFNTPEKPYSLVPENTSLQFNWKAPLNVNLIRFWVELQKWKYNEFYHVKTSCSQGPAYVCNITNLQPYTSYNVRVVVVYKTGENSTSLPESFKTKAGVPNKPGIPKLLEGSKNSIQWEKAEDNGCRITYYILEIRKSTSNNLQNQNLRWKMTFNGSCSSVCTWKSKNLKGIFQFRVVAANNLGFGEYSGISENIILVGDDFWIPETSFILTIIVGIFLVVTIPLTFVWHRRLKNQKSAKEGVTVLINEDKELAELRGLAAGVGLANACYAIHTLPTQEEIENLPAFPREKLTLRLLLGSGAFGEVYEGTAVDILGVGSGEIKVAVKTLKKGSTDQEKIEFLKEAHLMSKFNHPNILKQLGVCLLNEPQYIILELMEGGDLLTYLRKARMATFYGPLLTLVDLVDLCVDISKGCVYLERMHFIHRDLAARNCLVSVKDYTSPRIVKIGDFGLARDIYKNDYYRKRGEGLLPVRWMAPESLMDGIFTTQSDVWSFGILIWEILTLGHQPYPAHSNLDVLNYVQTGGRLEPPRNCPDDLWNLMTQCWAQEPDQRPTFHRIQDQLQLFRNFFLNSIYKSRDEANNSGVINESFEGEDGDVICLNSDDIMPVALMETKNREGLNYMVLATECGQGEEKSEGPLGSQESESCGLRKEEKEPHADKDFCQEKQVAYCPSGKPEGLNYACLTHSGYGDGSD
Chain of Cyclin-dependent kinase 3 (Homo sapiens) (Q00526 whole entry, looked up): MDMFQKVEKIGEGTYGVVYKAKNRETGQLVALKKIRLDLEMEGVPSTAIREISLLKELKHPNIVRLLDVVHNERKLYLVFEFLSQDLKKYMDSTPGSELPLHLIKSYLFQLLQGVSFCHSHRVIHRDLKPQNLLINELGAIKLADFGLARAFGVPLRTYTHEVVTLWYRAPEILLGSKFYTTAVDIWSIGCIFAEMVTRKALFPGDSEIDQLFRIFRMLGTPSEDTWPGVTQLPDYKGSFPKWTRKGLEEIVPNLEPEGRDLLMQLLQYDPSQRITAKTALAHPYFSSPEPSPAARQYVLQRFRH
Chain of Serine/threonine-protein kinase PAK 1 (Homo sapiens) (Q13153 whole entry): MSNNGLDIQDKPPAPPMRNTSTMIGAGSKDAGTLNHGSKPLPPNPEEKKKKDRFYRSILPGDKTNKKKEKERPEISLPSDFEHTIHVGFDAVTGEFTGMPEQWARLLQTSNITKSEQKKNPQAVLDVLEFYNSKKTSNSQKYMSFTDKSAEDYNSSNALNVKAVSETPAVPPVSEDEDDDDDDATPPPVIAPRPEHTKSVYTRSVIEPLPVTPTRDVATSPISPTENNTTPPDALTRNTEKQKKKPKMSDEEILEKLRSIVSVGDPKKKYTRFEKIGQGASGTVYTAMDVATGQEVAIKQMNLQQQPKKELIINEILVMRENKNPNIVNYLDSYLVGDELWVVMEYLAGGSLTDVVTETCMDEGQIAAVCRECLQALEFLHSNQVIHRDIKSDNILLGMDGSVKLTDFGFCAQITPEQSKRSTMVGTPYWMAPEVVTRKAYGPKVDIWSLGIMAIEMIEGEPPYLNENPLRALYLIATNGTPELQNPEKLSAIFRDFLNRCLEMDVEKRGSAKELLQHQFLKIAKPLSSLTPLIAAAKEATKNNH
Chain of Mitogen-activated protein kinase 6 (Homo sapiens) (Q16659 whole entry): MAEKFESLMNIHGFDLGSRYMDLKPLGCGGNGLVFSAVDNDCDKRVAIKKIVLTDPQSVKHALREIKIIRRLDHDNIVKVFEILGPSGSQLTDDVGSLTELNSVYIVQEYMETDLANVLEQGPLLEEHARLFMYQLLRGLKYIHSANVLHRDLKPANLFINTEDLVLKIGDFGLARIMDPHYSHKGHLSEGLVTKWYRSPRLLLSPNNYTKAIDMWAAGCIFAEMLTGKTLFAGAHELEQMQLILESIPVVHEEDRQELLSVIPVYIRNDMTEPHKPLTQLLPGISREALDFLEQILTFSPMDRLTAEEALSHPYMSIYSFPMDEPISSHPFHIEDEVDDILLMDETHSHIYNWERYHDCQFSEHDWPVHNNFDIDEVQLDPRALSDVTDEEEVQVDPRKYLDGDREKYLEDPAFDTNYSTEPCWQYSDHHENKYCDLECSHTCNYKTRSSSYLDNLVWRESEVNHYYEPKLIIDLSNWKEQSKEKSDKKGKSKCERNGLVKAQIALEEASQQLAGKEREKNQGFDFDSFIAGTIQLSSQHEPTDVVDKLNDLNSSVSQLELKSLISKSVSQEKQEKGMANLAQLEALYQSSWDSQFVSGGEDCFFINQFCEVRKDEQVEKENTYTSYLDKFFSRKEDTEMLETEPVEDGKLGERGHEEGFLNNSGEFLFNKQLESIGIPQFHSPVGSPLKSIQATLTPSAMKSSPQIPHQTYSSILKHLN

CC1=C(C#N)C(c2ccc3c(c2)c(NC(=O)c2ccccc2C)nn3C)C(C#N)=C(C)N1 [BAY-974]
inactive: residual activity [1] 99% | residual activity [2] 100% | residual activity [3] 97% | residual activity [4] 95% | residual activity [5] 83% | residual activity [6] 93% | residual activity [7] 100% | residual activity [8] 89% | residual activity [9] 80% | residual activity [10] 97% | residual activity [11] 93% | residual activity [12] 100% | residual activity [13] 89% | residual activity [14] 99% | residual activity [15] 94% | residual activity [16] 96% | residual activity [17] 94% | residual activity [18] 100% | residual activity [19] 86% | residual activity [20] 98% | residual activity [21] 84% | residual activity [22] 100% | residual activity [23] 94% | residual activity [24] 100% | residual activity [25] 94% | residual activity [26] 83% | residual activity [27] 82% | inhibition [28] 2.45%

CCc1ccccc1C(=O)Nc1n[nH]c2c(C)c(F)c(C3C(C#N)=C(C)N(C)C(C)=C3C#N)cc12 [BAY-3827]
inactive: residual activity [1] 88% | residual activity [2] 94% | residual activity [3] 62% | residual activity [4] 97% | residual activity [5] 55% | residual activity [6] 100% | residual activity [7] 100% | residual activity [8] 57% | residual activity [9] 86% | residual activity [10] 100% | residual activity [11] 74% | residual activity [12] 100% | residual activity [13] 86% | residual activity [14] 100% | residual activity [15] 51% | residual activity [16] 92% | residual activity [17] 100% | residual activity [18] 82% | residual activity [19] 100% | residual activity [20] 100% | residual activity [21] 100% | residual activity [22] 100% | residual activity [24] 98% | residual activity [25] 100% | residual activity [26] 79% | residual activity [27] 90% | inhibition [28] 4.65%
active: residual activity [23] 32%
